Each structure is given as a SMILES string. Read-outs that look alike come from different tables or passages of the source. A value given as a limit tells only on which side of the number the result lay.

The term Kd denotes the free concentration of one partner at which half of the binding sites on the other are occupied at equilibrium, for simple one-to-one binding. By IC50 is commonly meant the point on the concentration scale where inhibition reaches its midpoint. What is called DC50 is the concentration giving 50% degradation.

One experiment concerns the target mouse MLKL (full length) (Mus musculus (Mouse), UniProt Q9D2Y4). Description: KINOMEscan binding assay, mouse MLKL (full length). The conditions noted are these: Table 22. The procedure: Binding affinity of the test compounds for human MLKL (full length), mouse MLKL (full length), human RIPK1 and human RIPK3 was determined using the KINOMEscan™ technology developed by DiscoverX (USA; http://www.discoverx.com). The assay was conducted according to manufacturer instructions.
Kinase assays. For most assays, kinase-tagged T7 phage strains were grown in parallel in 24-well blocks in an E. coli host derived from the BL21 strain. E. coli were grown to log-phase and infected with T7 phage from a frozen stock (multiplicity of infection=0.4) and incubated with shaking at 32° C. until lysis (90-150 minutes). The lysates were centrifuged (6,000×g) and filtered (0.2 μm) to remove cell debris. The remaining kinases were produced in HEK-293 cells and subsequently tagged with DNA for qPCR detection. […] The liganded beads were blocked with excess biotin and washed with blocking buffer (SeaBlock (Pierce), 1% BSA, 0.05% Tween 20, 1 mM DTT) to remove unbound ligand and to reduce non-specific phage binding. […] All reactions were performed in polypropylene 384-well plates in a final volume of 20 μL. […] The kinase concentration in the eluates was measured by qPCR.
An 11-point 3-fold serial dilution of each test compound was prepared in 100% DMSO at 100× final test concentration and subsequently diluted to 1× in the assay (final DMSO concentration=1%). Most Kos were determined using a compound top concentration=30,000 nM.
KD for each test compound was calculated with a standard dose-response curve using the Hill equation (equation (1)): […]
The Hill Slope was set to −1.
Curves were fitted using a non-linear least square fit with the Levenberg-Marquardt algorithm.

A further experiment concerns the target human RIPK1 (Homo sapiens (Human), UniProt Q13546). In words: KINOMEscan binding assay, human RIPK1. As to conditions: Table 21. The method in brief: (§1)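 Tagged kinase + immobilized ligand beads + compound; eluted kinase quantified by qPCR. Kinase source: T7 phage lysate (BL21-derived E. coli, 32 °C) or HEK-293 with DNA tag. 11-pt 3-fold series, 1% DMSO, top 30,000 nM (most). Hill fit, slope −1 → Kd.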

A further experiment concerns the target human RIPK3 (Homo sapiens (Human), UniProt Q9Y572). In words: KINOMEscan binding assay, human RIPK3. The conditions noted are these: Table 21. The method in brief: as §1
Another experiment has as its target human MLKL (full length) (Homo sapiens (Human), UniProt Q8NB16). Description: KINOMEscan binding assay, human MLKL (full length). The method in brief: as §1
Experiment [1] has as its system Immortalised Mouse Dermal Fibroblasts (MDFs). Description: Cellular assay: inhibition of TSI induced necroptosis, CellTitre-Glo viability. The conditions noted are these: Mus musculus, Fibroblast; MDF, 3 hours TSI cocktail, Table 24; read-out: Inhibition of TSI-induced necroptosis (IC50 cell-based assay) in MDF. The method in brief:
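Necroptosis induced for 3 h with TSI: rhTNF 100 ng/ml, Smac mimetic 500 nM, caspase inhibitor IDN-6556 10 μM. Mouse dermal fibroblasts had received compound (36 μM top, ten three-fold steps) 30 min beforehand. ATP-based viability scaled between untreated and TSI-only wells; IC50 taken as 4-parameter curve inflection.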

The subject of the next experiment is U937 cells. Description: Counter screen: cell viability without the TSQ cocktail (off-target effect). Set-up: species or system human. As to conditions: Homo sapiens, U-937, Table 26, read-out: Off-target effect (IC50 cell-based assay). A digest of the protocol:
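U937 cells (20000/well, HT-RPMI + 7.4% FBS) treated with compound (10-point 1:3 dilution from 36 μM, 0.3% DMSO) without the TSQ cocktail for 48 h at 37 °C/5% CO2. Viability read as ATP by CellTiter-Glo luminescence, flagging off-target cytotoxicity.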
Background: The purpose of a counterscreen is to sort out artefacts and off-target activity.

Experiment [2] has as its system U937 human histiocytic leukemia cell line. In words: Cellular assay: inhibition of TSQ induced necroptosis, CellTitre-Glo viability. As to conditions: Homo sapiens, U-937; U937 cells, 48 hours, TSQ cocktail, Table 26; read-out: Inhibition of TSQ-induced necroptosis (IC50 cell-based assay). The method in brief:
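U937 cells (20,000/well) treated with compound (10-point, 36 μM top, 1:3) plus TSQ cocktail (hTNF-Fc 100 ng/ml, Smac mimetic 500 nM, Q-VD-OPh 10 μM), 48 h at 37° C., 0.3% DMSO. Viability by CellTitre-Glo ATP luminescence; counter screen without TSQ measured compound-only effects on viability.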

A further experiment addresses endogenous MLKL in MDF (Mus musculus (Mouse), UniProt Q9D2Y4). In words: Degradation assay: endogenous MLKL in MDF (western blot). The conditions noted are these: MDF cells, 24 h incubation with compound, MLKL adjusted for loading with GAPDH, normalized to DMSO only control, read-out: Degradation of endogenous MLKL in MDF (DC50 cell-based assay). A digest of the protocol: (§2)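 Western blot band intensity of MLKL, adjusted to GAPDH loading and normalized to DMSO-only wells, gave percent degradation. Compound exposure lasted 24 h at final concentrations of 10–0.016 μM in 1:5 steps, in mouse dermal fibroblasts or human U937 cells.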
In general terms: Immunoblotting shows a protein as a band on a membrane.

Another experiment concerns the target endogenous MLKL in U937 (Homo sapiens (Human), UniProt Q8NB16). In words: Degradation assay: endogenous MLKL in U937 (western blot). As to conditions: U937, 24 h incubation, read-out: Degradation of endogenous MLKL in U937 (DC50 cell-based assay). The method in brief: as §2
[3] abbreviates: KINOMEscan, Table 21, read-out: Human MLKL (full-length) (KD).

Sequence of human RIPK3 (Q9Y572 whole entry): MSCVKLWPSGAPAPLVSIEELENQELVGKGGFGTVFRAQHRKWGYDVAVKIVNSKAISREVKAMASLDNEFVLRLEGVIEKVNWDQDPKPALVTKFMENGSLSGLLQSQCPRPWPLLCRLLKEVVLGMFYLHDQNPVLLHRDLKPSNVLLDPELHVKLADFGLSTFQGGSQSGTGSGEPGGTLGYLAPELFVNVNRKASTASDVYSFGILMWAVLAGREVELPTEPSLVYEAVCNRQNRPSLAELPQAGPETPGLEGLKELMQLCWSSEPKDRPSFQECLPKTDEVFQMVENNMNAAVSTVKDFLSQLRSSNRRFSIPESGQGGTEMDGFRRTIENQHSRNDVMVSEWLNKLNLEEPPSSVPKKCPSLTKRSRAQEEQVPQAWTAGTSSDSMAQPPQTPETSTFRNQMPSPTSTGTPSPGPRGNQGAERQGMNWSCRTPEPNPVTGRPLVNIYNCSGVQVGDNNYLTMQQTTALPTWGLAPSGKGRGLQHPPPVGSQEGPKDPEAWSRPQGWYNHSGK
Sequence of human RIPK1 (Q13546 whole entry): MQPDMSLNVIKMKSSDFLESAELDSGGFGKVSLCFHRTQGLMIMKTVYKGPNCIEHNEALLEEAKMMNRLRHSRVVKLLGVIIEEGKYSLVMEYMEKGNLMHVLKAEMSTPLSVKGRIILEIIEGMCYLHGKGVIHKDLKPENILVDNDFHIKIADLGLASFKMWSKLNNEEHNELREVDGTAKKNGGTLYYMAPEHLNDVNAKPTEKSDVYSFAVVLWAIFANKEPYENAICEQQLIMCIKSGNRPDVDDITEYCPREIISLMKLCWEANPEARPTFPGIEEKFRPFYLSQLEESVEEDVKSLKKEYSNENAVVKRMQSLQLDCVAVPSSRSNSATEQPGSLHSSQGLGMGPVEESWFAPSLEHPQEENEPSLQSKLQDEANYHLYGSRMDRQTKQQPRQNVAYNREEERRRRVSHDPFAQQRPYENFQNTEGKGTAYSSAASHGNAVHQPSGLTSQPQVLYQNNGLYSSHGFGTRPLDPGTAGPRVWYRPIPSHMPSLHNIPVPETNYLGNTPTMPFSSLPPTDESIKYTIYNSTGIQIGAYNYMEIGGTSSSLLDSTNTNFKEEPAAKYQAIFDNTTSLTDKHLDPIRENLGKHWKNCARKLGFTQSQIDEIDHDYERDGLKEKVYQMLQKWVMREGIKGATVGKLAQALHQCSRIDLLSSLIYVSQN
Sequence of human MLKL (full length) (Q8NB16 whole entry): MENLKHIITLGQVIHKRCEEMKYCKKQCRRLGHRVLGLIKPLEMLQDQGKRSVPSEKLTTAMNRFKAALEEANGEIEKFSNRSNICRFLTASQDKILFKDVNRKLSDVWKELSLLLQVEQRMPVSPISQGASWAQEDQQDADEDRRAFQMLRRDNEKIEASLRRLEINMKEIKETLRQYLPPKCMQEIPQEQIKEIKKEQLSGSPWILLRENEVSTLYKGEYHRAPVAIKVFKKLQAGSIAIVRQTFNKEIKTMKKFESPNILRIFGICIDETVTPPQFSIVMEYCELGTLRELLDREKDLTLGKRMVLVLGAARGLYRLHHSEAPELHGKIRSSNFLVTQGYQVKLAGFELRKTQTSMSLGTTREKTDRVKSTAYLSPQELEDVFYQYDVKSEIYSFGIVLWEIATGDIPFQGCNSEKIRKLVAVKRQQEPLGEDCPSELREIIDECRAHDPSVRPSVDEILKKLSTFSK
Sequence of mouse MLKL (full length) (Q9D2Y4 whole entry): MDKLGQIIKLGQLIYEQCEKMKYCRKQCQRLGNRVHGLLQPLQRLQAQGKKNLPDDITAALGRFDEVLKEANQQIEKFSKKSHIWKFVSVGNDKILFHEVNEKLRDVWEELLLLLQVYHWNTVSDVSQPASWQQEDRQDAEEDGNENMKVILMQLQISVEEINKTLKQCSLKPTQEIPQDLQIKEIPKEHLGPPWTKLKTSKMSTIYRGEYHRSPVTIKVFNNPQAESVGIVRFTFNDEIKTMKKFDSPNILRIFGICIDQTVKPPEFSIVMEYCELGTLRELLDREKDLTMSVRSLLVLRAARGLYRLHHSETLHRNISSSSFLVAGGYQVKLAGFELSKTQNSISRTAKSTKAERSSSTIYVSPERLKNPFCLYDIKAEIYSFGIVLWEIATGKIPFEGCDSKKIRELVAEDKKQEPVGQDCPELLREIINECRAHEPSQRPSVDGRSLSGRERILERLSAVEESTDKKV
Sequence of endogenous MLKL in U937 (Q8NB16 whole entry): as the sequence (Q8NB16 whole entry) above
Sequence of endogenous MLKL in MDF (Q9D2Y4 whole entry): as the sequence (Q9D2Y4 whole entry) above

`Cn1nc(-c2ccc(NS(=O)(=O)C(F)F)c(OCc3ccc(F)cc3)c2)c2c(N)ncc(-c3cnn(C4CCOCC4)c3)c21` [Compound 13, N-(4-(4-amino-1-methyl-7-(1-(tetrahydro-2H-pyran-4-yl)-1H-pyrazol-4-yl)-1H-pyrazolo[4,3-c]pyridin-3-yl)-2-((4-fluoro-benzyl)oxy)phenyl)-1,1-difluoromethane-sulfonamide]: the Kd at mouse MLKL (full length) is less than 1 nM; on human RIPK1, more than 10000 nM; at human RIPK3, more than 10000 nM; at human MLKL (full length) (setting [3]), less than 1 nM.

Regarding `C[C@H](Oc1cc(-c2coc3c(-c4cnn(C)c4)cnc(N)c23)ccc1NS(=O)(=O)C(F)F)c1ccc(F)cc1` [Compound 8, (S)-N-(4-(4-amino-7-(1-methyl-1H-pyrazol-4-yl)furo[3,2-c]pyridin-3-yl)-2-(1-(4-fluorophenyl)eth-oxy)phenyl)-1,1-difluoromethane-sulfonamide], the Kd on mouse MLKL (full length) was less than 1 nM; at human RIPK1, more than 10000 nM; at human RIPK3, more than 10000 nM; at human MLKL (full length) (setting [3]) it was less than 1 nM.

For the molecule `C[C@H](Oc1cc(-c2nn(C)c3c(-c4cnn(C5CCOCC5)c4)cnc(N)c23)ccc1NS(=O)(=O)C(F)F)c1ccc(F)cc1` [Compound 19], the Kd on mouse MLKL (full length) and at human MLKL (full length) (setting [3]) was less than 1 nM throughout. Moreover, the IC50 in [1] was less than 1000 nM.

Take `C[C@H](Oc1cc(-c2nn(C)c3c(-c4cnn(C)c4)cnc(N)c23)ccc1NS(=O)(=O)C(F)F)c1ccc(F)cc1` [Compound 20, (S)-N-(4-(4-amino-1-methyl-7-(1-methyl-1H-pyrazol-4-yl)-1H-pyrazolo[4,3-c]pyridin-3-yl)-2-(1-(4-fluorophenyl)ethoxy)phenyl)-1,1-difluoromethanesulfonamide]: the Kd on mouse MLKL (full length) is less than 1 nM; at human RIPK1 it was more than 10000 nM; on human RIPK3, more than 10000 nM; at human MLKL (full length) (setting [3]), less than 1 nM.

For the molecule `C[C@H](Oc1cc(-c2coc3c(-c4cnn(C5CCOCC5)c4)cnc(N)c23)ccc1NS(=O)(=O)C(F)F)c1ccc(F)cc1` [Compound 7, (S)-N-(4-(4-amino-7-(1-(tetrahydro-2H-pyran-4-yl)-1H-pyrazol-4-yl)furo[3,2-c]pyridin-3-yl)-2-(1-(4-fluoro-phenyl)eth-oxy)phenyl)-1,1-difluoro-methanesulfonamide], the values for the Kd at mouse MLKL (full length), at human RIPK1 and on human RIPK3 were less than 1 nM, more than 10000 nM and more than 10000 nM, respectively.

Regarding `C[C@H](Oc1cc(-c2nn(C)c3c(-c4cnn(CCO)c4)cnc(N)c23)ccc1NS(=O)(=O)C(F)F)c1ccc(F)cc1` [Compound 15, (S)-N-(4-(4-amino-7-(1-(2-hydroxyethyl)-1H-pyrazol-4-yl)-1-methyl-1H-pyrazolo[4,3-c]pyridin-3-yl)-2-(1-(4-fluorophenyl)ethoxy)phenyl)-1,1-difluoromethanesulfonamide], the Kd was less than 1 nM at mouse MLKL (full length), more than 10000 nM on human RIPK1, more than 10000 nM on human RIPK3 and less than 1 nM at human MLKL (full length) (setting [3]).

As for `C[C@H](Oc1cc(-c2nn(C)c3c(-c4cnn(CCN5CCN(C)CC5)c4)cnc(N)c23)ccc1NS(=O)(=O)C(F)F)c1ccc(F)cc1` [Compound 60, (S)-N-(4-(4-amino-1-methyl-7-(1-(2-(4-metyhlpiperazin-1-yl)ethyl)-1H-pyrazol-4-yl)-1H-pyrazolo[4,3-c]pyridin-3-yl)-2-(1-(4-fluorophenyl)ethoxy)phenyl)-1,1-difluoromethanesulfonamide], the Kd at mouse MLKL (full length) is less than 1 nM; at human RIPK1, more than 10000 nM; on human RIPK3 it was more than 10000 nM.

As to `Nc1ncc(-c2cnn(C3CCOCC3)c2)c2occ(-c3ccc(NS(=O)(=O)C(F)F)c(OCc4ccc(F)cc4)c3)c12` [Compound 5, N-(4-(4-amino-7-(1-(tetrahydro-2H-pyran-4-yl)-1H-pyrazol-4-yl)furo[3,2-c]pyridin-3-yl)-2-((4-fluorobenzyl)oxy)phenyl)-1,1-difluoro-methanesulfonamide], the Kd on mouse MLKL (full length) and at human MLKL (full length) (setting [3]) was less than 1 nM throughout.

Consider `Cc1ncsc1-c1ccc(CNC(=O)[C@@H]2C[C@@H](O)CN2C(=O)[C@@H](NC(=O)CCCCCCn2cc(-c3cnc(N)c4c(-c5ccc(NS(=O)(=O)C(F)F)cc5)nn(C)c34)cn2)C(C)(C)C)cc1` [Compound 1022, (2S,4R)-1-[(2S)-2-[7-(4-{4-amino-3-[4-(difluoromethanesulfonamido)phenyl]-1-methyl-1H-pyrazolo[4,3-c]pyridin-7-yl}-1H-pyrazol-1-yl)heptanamido]-3,3-dimethylbutanoyl]-4-hydroxy-N-{[4-(4-methyl-1,3-thiazol-5-yl)phenyl]methyl}pyrrolidine-2-carboxamide], for which the results for the IC50 (with U937 cells; in experiment [2]) were more than 10000 nM and less than 1000 nM, respectively. In addition, the DC50 at endogenous MLKL in MDF and on endogenous MLKL in U937 was less than 1000 nM in each case. Besides, the Kd at human MLKL (full length) (hMLKL, Table 25, read-out: MLKL (KD)) was less than 10 nM.

These data come from patent publication US20250115598A1 (Anaxis Pharma Pty Ltd, priority 2021, published 2025).
